{"source": "patent US20240269238A1", "about": "“Therapeutic Regimens and Methods for Reducing Body Weight in a Subject with Fatty Liver Disease using a GLP-1R and GCGR Agonist” (Spitfire Pharma LLC, priority 2022, published 2024)", "key": {"[1]": {"assay": "Phase 1 12-week NAFLD study (Example 1): safety, tolerability, serum lipids, glycemic control, heart rate", "type": "in vivo, human", "conditions": "for AE leading to treatment discontinuation, number of subjects: gastrointestinal intolerance", "source_text": "Provided herein is disclosure of a Phase 1, multicenter, randomized, double-blind, placebo-controlled study to assess the effects of Pemvidutide (also termed herein as ALT-801), the safety of Pemvidutide and effects on hepatic fat fraction, anthropometric parameters, lipid metabolism, inflammatory markers and fibrosis markers in diabetic and non-diabetic (type 2 diabetes) overweight and obese (BMI 28.0 kg/m^2) subjects with NAFLD. This study was designed to assess changes in hepatic fat fraction by MRI-PDFF (magnetic resonance imaging-proton density fat fraction) in diabetic and non-diabetic overweight and obese subjects with NAFLD after 12 weeks of ALT-801 treatment. The trial was conducted without adjunctive diet and exercise interventions. The study assessed changes in body weight, lipid metabolism, metabolic markers, and inflammatory markers and safety and tolerability of ALT-801 after 12 weeks of treatment. Subjects were stratified for the presence or absence of diabetes at baseline. Fibroscan and cT1 assessments evaluated changes in liver inflammatory and fibrotic activity at the end of 12 weeks of treatment.\nThe study, described in this example, was carried out in 94 subjects overweight and obese (body mass index [BMI] ≥28.0 kg/m^2) Type 2 diabetic and non-diabetic subjects with nonalcoholic fatty liver disease (NAFLD) over about 4.5 months, including up to a 35-day screening period, and 85-day treatment period and a 25-day follow-up period, with treatment with ALT-801 (a composition comprising SEQ ID NO.: 1, “study medication”) or placebo administered by subcutaneous (SC) injection once weekly for up to twelve (12) doses.\nThe safety objective of this study was to assess the safety and tolerability of ALT-801 in 18-65 years old subjects with NAFLD (NAFLD without significant fibrosis, defined as FibroScan® controlled attenuation parameter (CAP) ≥280 dB/m and liver stiffness measurement (LSM)<10 kPa (i.e., indicating the absence of significant fibrosis), magnetic resonance imaging derived proton density fat fraction (MRI-PDFF) ≥10%), hemoglobin Alc (HbAlc) of less than 9.5%, and alanine aminotransferase (ALT) or aspartate aminotransferase (AST) values of ≤[…]. The pharmacodynamic (PD) objectives of this study were to evaluate the effects of ALT-801 on hepatic fat fraction, anthropometric parameters, lipid metabolism, metabolic markers, inflammatory markers, fibrosis markers, and lipotoxicity markers. The pharmacokinetic (PK) objectives of this study were to evaluate the effects of ALT-801 and metformin exposure (drug interactions) on the subjects (e.g., ALT-801 and metformin concentrations in blood over time).\nAfter providing informed consent, subjects underwent a screening period of up to 35 days. Subjects were instructed on how to maintain their normal diets, alcohol consumption and physical activities and not to start any new diets, supplements, or exercise programs at any time while participating in the study. Counseling was provided on diet and exercise on the Day 1 visit and reinforced at subsequent visits. Study subjects were randomized 1:1:1:1 to one of the following treatment arms: 1) ALT-8011.2 mg SC once weekly for 12 weeks; 2) ALT-8011.8 mg SC once weekly for 12 weeks; 3) ALT-801 0.6 mg SC at week 1, 1.2 mg SC at week 2, 1.8 mg SC once weekly for 2 weeks (weeks 3 and 4), and 2.4 mg SC once weekly for weeks 5 through 12; or, 4) placebo SC once weekly for 12 weeks. Subjects were stratified by presence or absence of diabetes at baseline. Subjects in the treatment arm with a final therapeutic dose of 2.4 mg underwent a rapid 4-week dose escalation to improve tolerability and reduce the possibility of adverse events. […] See FIG. 7, second 2.4 mg column as compared to the first 2.4 mg column (this study). See WO 2022/125598. […]"}, "[2]": {"assay": "Phase 1b 24-week NAFLD study (Example 3): safety", "type": "in vivo, human", "conditions": "for serious and severe AE observed: unrelated to study medication", "source_text": "Provided herein is disclosure of a 12-week extension study of the study provided in Example 1, providing a 24-week a Phase 1b, randomized, double-blind, placebo-controlled study to assess the effects of pemvidutide (also termed herein as ALT-801), the safety of pemvidutide and effects on weight loss, hepatic fat fraction, anthropometric parameters, lipid metabolism, as well as inflammatory, fibrosis and other markers in diabetic and non-diabetic (type 2 diabetes) overweight and obese (BMI≥28.0 kg/m^2) subjects with NAFLD (defined as liver fat content (LFC) by MRI-PDFF ≥10%; absence of significant fibrosis, defined as FibroScan® LSM ≤10 kPa), alanine aminotransferase (ALT) and aspartate aminotransferase (AST) laboratory values of ≤75 IU/L and HbA1c <9.5. Men and women aged 18-65 years were studied. Diabetic subjects were defined as those that have undergone stable dose (≥3 months) metformin or SLGT-2 therapy and no use of insulin, sulfonylureas, DPP-4, GLP-1 treatment; Ninety-four (94) subjects were enrolled in the initial 12-week Phase 1b NAFLD trial and 83 subjects who completed were invited to receive a total of 12 additional weeks of blinded treatment. Of those subjects, 66 consented to rollover, of which 64 were eligible to participate.\nThe primary endpoint of this study was a reduction in liver fat content (LFC) by MRI-PDFF at Week 24 compared to Week 0 (zero). Key secondary endpoints include percent (%) weight loss at Week 24 compared to Week 0 (zero), and liver inflammation by alanine aminotransferase (ALT) levels and corrected T1 (cT1) imaging at Week 24 as compared to Week 0 (zero). Adverse events (AEs), including serious and severe AEs, AEs leading to discontinuation, GI tolerability, vital signs, and glycemic control including fasting glucose and HbA1c levels were also measured."}}, "note": "“Also recorded” adds a separate entry of the source."}
{"smiles": "CC[C@H](C)[C@H](NC(=O)[C@H](Cc1ccccc1)NC(=O)[C@H](CCC(=O)O)NC(=O)[C@@H]1CCCCNC(=O)CC[C@H](NC(=O)[C@H](CC(=O)O)NC(=O)[C@H](CC(C)C)NC(=O)[C@H](Cc2ccc(O)cc2)NC(=O)[C@H](CCCCN)NC(=O)[C@H](CO)NC(=O)[C@H](Cc2ccc(O)cc2)NC(=O)[C@H](CC(=O)O)NC(=O)[C@H](CO)NC(=O)[C@@H](NC(=O)[C@H](Cc2ccccc2)NC(=O)[C@@H](NC(=O)CNC(=O)[C@H](CCC(N)=O)NC(=O)C(C)(C)NC(=O)[C@@H](N)Cc2c[nH]cn2)[C@@H](C)O)[C@H](C)O)C(=O)N[C@@H](CCCCNC(=O)C2O[C@@H](OCCCCCCCCCCCCCCCCCC(=O)O)C(O)C(O)[C@@H]2O)C(=O)N[C@@H](C)C(=O)N[C@@H](C)C(=O)N1)C(=O)N[C@@H](CCC(N)=O)C(=O)N[C@@H](Cc1c[nH]c2ccccc12)C(=O)N[C@@H](CC(C)C)C(=O)N[C@@H](CC(C)C)C(=O)N[C@@H](CCC(N)=O)C(=O)N[C@H](C(N)=O)[C@@H](C)O", "note": "(stereo partly shown) [ALT-801, Pemvidutide]", "values": [{"measurement": "AE leading to treatment discontinuation, rate", "setting": "[1]; 1.8 mg arm, 12 weeks", "result": 4.3, "unit": "%"}, {"measurement": "AE leading to treatment discontinuation, number of subjects", "setting": "[1]; 1.8 mg arm, 12 weeks", "result": 1}, {"measurement": "AE leading to treatment discontinuation, rate", "setting": "[1]; 2.4 mg arm, 12 weeks", "result": 4.2, "unit": "%"}, {"measurement": "AE leading to treatment discontinuation, number of subjects", "setting": "[1]; 2.4 mg arm, 12 weeks", "result": 1}, {"measurement": "AEs leading to treatment discontinuation (in words)", "setting": "[1]; 12 weeks", "result": "very low rates"}, {"measurement": "clinically significant ALT elevations (3-fold or greater the upper limit of normal)", "setting": "[1]; 12 weeks", "result": "No clinically significant ALT elevations; also recorded: no three-fold or greater ALT elevations were observed"}, {"measurement": "glycemic control (HbA1c, fasting glucose)", "setting": "[1]; 12 weeks", "result": "unaffected"}, {"measurement": "increases in heart rate (HR)", "setting": "[1]; 12 weeks", "result": "1-3 beat-per-minute (bpm)"}, {"measurement": "serious and severe adverse events", "setting": "[1]; 12 weeks treatment", "result": "No serious adverse events (AEs), severe AEs were observed; also recorded: no severe or serious AEs were observed"}, {"measurement": "symptoms experienced by subjects (severity)", "setting": "[1]; 12 weeks treatment", "result": "predominantly mild and transient"}, {"measurement": "serum lipids", "setting": "[1]; after 12 weeks", "result": "not significantly altered"}, {"measurement": "tolerability", "setting": "[1]; each treatment arm (FIG. 7)", "result": "well tolerated"}, {"measurement": "serious and severe AE observed", "setting": "[2]; 1.2 mg", "result": "Salmonella infection"}, {"measurement": "serious and severe AE observed", "setting": "[2]; 1.8 mg", "result": "hypertension >3 weeks post last dose of study medication"}, {"measurement": "number of adverse events leading to treatment discontinuation", "setting": "[2]; 24 weeks", "result": "low across the treatment group"}, {"measurement": "overall safety and tolerability", "setting": "[2]; 24 weeks", "result": "safe and tolerable"}, {"measurement": "severity of gastrointestinal-related adverse events (nausea, vomiting, diarrhea, constipation)", "setting": "[2]; 24 weeks", "result": "mild to moderate"}, {"measurement": "significant ALT elevations", "setting": "[2]; 24 weeks", "result": "No significant ALT elevations were reported"}, {"measurement": "number of serious or severe adverse events", "setting": "[2]; treatment groups, 24 weeks", "result": "low and comparable to the placebo group"}]}
